Test results taken from patent US20230278972A1, “SUBSTITUTED HALOALKYL SULFONANILIDE HERBICIDES” (FMC Corporation, priority 2020, published 2023).

What was measured:
Assay type in all cases: in vivo
[1] = tested on: Ryegrass, Italian (Italian ryegrass, Lolium multiflorum); assay: Test A preemergence, Ryegrass, Italian; conditions: Preemergence; for Plant response rating, Ryegrass, Italian: 0 to 100 scale (0 no effect, 100 complete control); for Ryegrass, Italian plant response rating: 125 g ai/ha, visual injury on 0 to 100 scale (0 no effect, 100 complete control), approximately 10 days
Summary of the method: (§1)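 Postemergence ratings come from foliar sprays onto one- to two-leaf plants of 2 to 10 cm grown in loam/sand; preemergence ratings come from a directed spray onto the soil of newly seeded pots. Formulation was a surfactant-containing non-phytotoxic solvent blend.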

[2] = tested on: ragweed (common ragweed, Ambrosia artemisiifolia); assay: Test A postemergence, ragweed; conditions: Postemergence, 0 to 100 scale (0 no effect, 100 complete control)
Summary of the method: as §1

[3] = tested on: pigweed (Amaranthus retroflexus); assay: Test A preemergence, pigweed; conditions: for Plant response rating, Pigweed: 0 to 100 scale (0 no effect, 100 complete control); for Pigweed plant response rating: 125 g ai/ha, visual injury on 0 to 100 scale (0 no effect, 100 complete control), approximately 10 days
Summary of the method: (§2)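 After sowing into a sand-amended loam, pots for the preemergence test were treated by spraying directly onto soil. In parallel, seedlings at the one- to two-leaf stage and 2 to 10 cm tall were treated postemergence with the identical surfactant-containing formulation.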

corn (Zea mays) = assay: Test A postemergence, corn; conditions: Postemergence, 0 to 100 scale (0 no effect, 100 complete control)
Summary of the method: as §1

[4] = tested on: ragweed (common ragweed, Ambrosia artemisiifolia); assay: Test A preemergence, ragweed; conditions: Preemergence; for Plant response rating, Ragweed: 0 to 100 scale (0 no effect, 100 complete control); for Ragweed plant response rating: 125 g ai/ha, visual injury on 0 to 100 scale (0 no effect, 100 complete control), approximately 10 days
Summary of the method: as §1

[5] = tested on: wheat (Triticum aestivum); assay: Test A postemergence, wheat; conditions: Postemergence, 0 to 100 scale (0 no effect, 100 complete control)
Summary of the method: as §2

[6] = tested on: pigweed (Amaranthus retroflexus); assay: Test A postemergence, pigweed; conditions: Postemergence, 0 to 100 scale (0 no effect, 100 complete control)
Summary of the method: as §1

[7] = tested on: galium (catchweed bedstraw, Galium aparine); assay: Test A postemergence, galium; conditions: Postemergence, 0 to 100 scale (0 no effect, 100 complete control)
Summary of the method: as §2

[8] = tested on: Foxtail, Giant (giant foxtail, Setaria faberi); assay: Test A postemergence, Foxtail, Giant; conditions: Postemergence, 0 to 100 scale (0 no effect, 100 complete control)
Summary of the method: as §1

kochia (Bassia scoparia) [9] = assay: Test A preemergence, kochia; conditions: Preemergence; for Plant response rating, Kochia: 0 to 100 scale (0 no effect, 100 complete control); for Kochia plant response rating: 125 g ai/ha, visual injury on 0 to 100 scale (0 no effect, 100 complete control), approximately 10 days
Summary of the method: as §1

kochia (Bassia scoparia) [10] = assay: Test A postemergence, kochia; conditions: Postemergence, 0 to 100 scale (0 no effect, 100 complete control)
Summary of the method: as §1

[11] = tested on: barnyardgrass (Echinochloa crus-galli); assay: Test A postemergence, barnyardgrass; conditions: Postemergence, 0 to 100 scale (0 no effect, 100 complete control)
Summary of the method: as §2

[12] = tested on: barnyardgrass (Echinochloa crus-galli); assay: Test A preemergence, barnyardgrass; conditions: Preemergence; for Plant response rating, Barnyardgrass: 0 to 100 scale (0 no effect, 100 complete control); for Barnyardgrass plant response rating: 125 g ai/ha, visual injury on 0 to 100 scale (0 no effect, 100 complete control), approximately 10 days
Summary of the method: as §1

[13] = tested on: Foxtail, Giant (giant foxtail, Setaria faberi); assay: Test A preemergence, Foxtail, Giant; conditions: Preemergence; for Plant response rating, Foxtail, Giant: 0 to 100 scale (0 no effect, 100 complete control); for Foxtail, Giant plant response rating: 125 g ai/ha, visual injury on 0 to 100 scale (0 no effect, 100 complete control), approximately 10 days
Summary of the method: as §1

[14] = tested on: blackgrass (Alopecurus myosuroides); assay: Test A postemergence, blackgrass; conditions: Postemergence, 0 to 100 scale (0 no effect, 100 complete control)
Summary of the method: as §1

[15] = tested on: Ryegrass, Italian (Italian ryegrass, Lolium multiflorum); assay: Test A postemergence, Ryegrass, Italian; conditions: Postemergence, 0 to 100 scale (0 no effect, 100 complete control)
Summary of the method: as §1

[16] = 1000 g ai/ha, visual injury, approx. 10 days
[17] = 500 g ai/ha, visual injury vs untreated controls after approx. 10 days
[18] = 31 g ai/ha, visual injury, approx. 10 days
[19] = 125 g ai/ha, visual injury approx. 10 days

Cc1cc(C)c(C(=O)N2CCN(C)CC2)cc1NS(=O)(=O)C(F)(F)F [Compound 10]
Plant response rating, Ryegrass, Italian ([1]; 1000 g ai/ha): 90
Plant response rating, Ragweed [2, 16]: 80
Plant response rating, Pigweed ([3]; 1000 g ai/ha): 100
Plant response rating, Corn (corn (Zea mays); [16]): 10
Plant response rating, Ragweed ([4]; 1000 g ai/ha): 90
Plant response rating, Wheat [5, 16]: 0
Plant response rating, Pigweed [6, 16]: 80
Plant response rating, Galium [7, 16]: 80
Plant response rating, Foxtail, Giant [8, 16]: 20
Plant response rating, Kochia (kochia (Bassia scoparia) [9]; 1000 g ai/ha): 60
Plant response rating, Kochia (kochia (Bassia scoparia) [10]; [16]): 40
Plant response rating, Barnyardgrass [11, 16]: 10
Plant response rating, Barnyardgrass ([12]; 1000 g ai/ha): 40
Plant response rating, Foxtail, Giant ([13]; 1000 g ai/ha): 80
Plant response rating, Blackgrass [14, 16]: 0
Plant response rating, Ryegrass, Italian [15, 16]: 60

C#CCN(CC#C)C(=O)c1cc(NS(=O)(=O)C(F)(F)F)c(C)cc1C [Compound 187]
Ryegrass, Italian plant response rating [1]: 100
Plant response rating, Ryegrass, Italian ([1]; 500 g ai/ha): 100
Plant response rating, Ragweed ([2]; 125 g ai/ha): 80
Ragweed plant response rating [2, 17]: 90
Pigweed plant response rating [3]: 70
Plant response rating, Pigweed ([3]; 500 g ai/ha): 80
Plant response rating, Corn (corn (Zea mays); 125 g ai/ha): 80
Corn plant response rating (corn (Zea mays); [17]): 90
Ragweed plant response rating [4]: 70
Plant response rating, Ragweed ([4]; 500 g ai/ha): 90
Plant response rating, Wheat ([5]; 125 g ai/ha): 70
Wheat plant response rating [5, 17]: 70
Plant response rating, Pigweed ([6]; 125 g ai/ha): 30
Pigweed plant response rating [6, 17]: 60
Plant response rating, Galium ([7]; 125 g ai/ha): 80
Galium plant response rating [7, 17]: 80
Plant response rating, Foxtail, Giant ([8]; 125 g ai/ha): 80
Foxtail, Giant plant response rating [8, 17]: 90
Kochia plant response rating (kochia (Bassia scoparia) [9]): 80
Plant response rating, Kochia (kochia (Bassia scoparia) [9]; 500 g ai/ha): 80
Plant response rating, Kochia (kochia (Bassia scoparia) [10]; 125 g ai/ha): 50
Kochia plant response rating (kochia (Bassia scoparia) [10]; [17]): 70
Plant response rating, Barnyardgrass ([11]; 125 g ai/ha): 90
Barnyardgrass plant response rating [11, 17]: 90
Barnyardgrass plant response rating [12]: 100
Plant response rating, Barnyardgrass ([12]; 500 g ai/ha): 100
Foxtail, Giant plant response rating [13]: 100
Plant response rating, Foxtail, Giant ([13]; 500 g ai/ha): 100
Plant response rating, Blackgrass ([14]; 125 g ai/ha): 20
Blackgrass plant response rating [14, 17]: 20
Plant response rating, Ryegrass, Italian ([15]; 125 g ai/ha): 90
Ryegrass, Italian plant response rating [15, 17]: 80

CO[C@@H]1CCCN(C(=O)c2cc(N(S(=O)(=O)C(F)(F)F)S(=O)(=O)C(F)(F)F)c(C)cc2C)C1 [Compound 95]
Plant response rating, Ryegrass, Italian [1, 18]: 20
Ryegrass, Italian plant response rating [1]: 90
Plant response rating, Ragweed ([2]; 31 g ai/ha): 0
Plant response rating, Ragweed [2, 19]: 0
Plant response rating, Pigweed [3, 18]: 70
Pigweed plant response rating [3]: 90
Plant response rating, Corn (corn (Zea mays); 31 g ai/ha): 0
Plant response rating, Corn (corn (Zea mays); [19]): 20
Plant response rating, Ragweed [4, 18]: 0
Ragweed plant response rating [4]: 60
Plant response rating, Wheat ([5]; 31 g ai/ha): 0
Plant response rating, Wheat [5, 19]: 10
Plant response rating, Pigweed ([6]; 31 g ai/ha): 40
Plant response rating, Pigweed [6, 19]: 80
Plant response rating, Galium ([7]; 31 g ai/ha): 40
Plant response rating, Galium [7, 19]: 80
Plant response rating, Foxtail, Giant ([8]; 31 g ai/ha): 0
Plant response rating, Foxtail, Giant [8, 19]: 0
Plant response rating, Kochia (kochia (Bassia scoparia) [9]; [18]): 0
Kochia plant response rating (kochia (Bassia scoparia) [9]): 10
Plant response rating, Kochia (kochia (Bassia scoparia) [10]; 31 g ai/ha): 10
Plant response rating, Kochia (kochia (Bassia scoparia) [10]; [19]): 30
Plant response rating, Barnyardgrass ([11]; 31 g ai/ha): 0
Plant response rating, Barnyardgrass [11, 19]: 30
Plant response rating, Barnyardgrass [12, 18]: 10
Barnyardgrass plant response rating [12]: 80
Plant response rating, Foxtail, Giant [13, 18]: 90
Foxtail, Giant plant response rating [13]: 100
Plant response rating, Blackgrass ([14]; 31 g ai/ha): 0
Plant response rating, Blackgrass [14, 19]: 0
Plant response rating, Ryegrass, Italian ([15]; 31 g ai/ha): 0
Plant response rating, Ryegrass, Italian [15, 19]: 0
